From patent US20250222120A1, “SYNTHESIS OF NOVEL SMALL MOLECULE CARM1 DEGRADERS, COMPOUNDS FORMED THEREBY, AND PHARMACEUTICAL COMPOSITIONS CONTAINING THEM” (Wisconsin Alumni Research Foundation, priority 2024, published 2025)

Legend:
MCF7 cells = assay: Global quantitative proteomic analysis of MCF7 cells by mass spectrometry; assay type: cell-based, Homo sapiens; conditions: 25 nM, 4 h, two-fold cutoff, p-value ≤0.05, 3491 proteins quantified
Method: Sample preparation for global proteomics analysis. Sample preparation is similar to the previous report (Ma et al. “Strategy Based on Deglycosylation, Multiprotease, and Hydrophilic Interaction Chromatography for Large-Scale Profiling of Protein Methylation” Anal. Chem. 2017, 89 (23), 12909-12917). Briefly, treated MCF7 cells were harvested by washing with PBS buffer (Gibco, pH 7.4) and lysed in RIPA buffer supplemented with protease inhibitors for 20 min, then protein concentration was determined using a BCA Protein Assay Kit (Thermo Pierce, Rockford, IL) per manufacturer instructions. […] The concentrations of the peptide mixture were measured by peptide assay (Thermo Fisher Scientific). […]
LC-MS/MS data acquisition. Samples were analyzed on an Orbitrap Fusion Lumos Tribrid mass spectrometer (Thermo Fisher Scientific) coupled to a Dionex UltiMate 3000 UPLC system. […]
Data analysis. Protein identification and quantification by MaxQuant (version 1.5.3.8) based database searching, using the integrated Andromeda search engine with FDR <1% at peptide and protein levels. […] For label-free protein quantification (LFQ), the MaxQuant LFQ algorithm was used to quantitate the MS signals, and the proteins' intensities were represented in LFQintesnit (Schaab et al. “Analysis of High Accuracy, Quantitative Proteomics Data in the MaxQB Database” Mol. Cell. Proteomics 2012, 11 (3), M111.014068). […]

CARM1 = target: T1, CARM1 (Homo sapiens, UniProt Q86X55); assay: CARM1 degradation by western blot in MCF7 cells; assay type: cell-based; parameters: Cell lysates were collected and the CARM1 levels were detected by western blots; endogenous in cells; host or cells: MCF7
T1 sequence (Q86X55 1-608): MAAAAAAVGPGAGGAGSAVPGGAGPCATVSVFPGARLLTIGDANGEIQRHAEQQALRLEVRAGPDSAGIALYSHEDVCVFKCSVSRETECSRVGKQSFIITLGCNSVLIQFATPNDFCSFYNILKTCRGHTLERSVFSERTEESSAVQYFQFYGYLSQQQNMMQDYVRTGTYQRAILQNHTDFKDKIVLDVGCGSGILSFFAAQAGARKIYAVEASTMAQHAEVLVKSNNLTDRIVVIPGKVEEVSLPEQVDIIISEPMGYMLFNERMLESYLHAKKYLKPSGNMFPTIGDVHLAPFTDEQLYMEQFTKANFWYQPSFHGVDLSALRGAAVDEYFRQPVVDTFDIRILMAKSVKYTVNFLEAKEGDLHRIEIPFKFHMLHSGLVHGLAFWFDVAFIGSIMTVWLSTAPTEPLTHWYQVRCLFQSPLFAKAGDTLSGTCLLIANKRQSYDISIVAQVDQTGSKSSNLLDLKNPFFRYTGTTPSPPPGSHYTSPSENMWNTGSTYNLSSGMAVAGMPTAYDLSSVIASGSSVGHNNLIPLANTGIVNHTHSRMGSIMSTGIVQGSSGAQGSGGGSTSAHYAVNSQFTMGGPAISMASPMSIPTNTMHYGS
Method: Based on the structure of TPVC3, CARM1 degraders with stable and flexible alkyl linkages 2a-e were designed and synthesized. Degrader 2b bears the same linker length as TPVC3, while 2a has one less carbon. However, we also changed the hydrolytic labile C═N double bond, which is part of the acylhydrazone motif, in TPVC3 to a C—C bond in compound 2b. This change may influence the required optimal linker length. […] Western blot assays were performed to evaluate the CARM1 degradation activity of the compounds after treating MCF7 cells with these degraders at two concentrations (0.5 and 1.0 μM) for 24 h. […] It has one less carbon atom than 2a in terms of length. […] It has the same linker length as 2d.
The treatment dose and time were determined based on time-course and dose titration experiments (FIG. 4B-4C).
Western Blot Assay. Cells were harvested and washed with Dulbecco's phosphate-buffered saline (PBS), then lysed with 1×RIPA lysis buffer (50 mM Tris pH 7.5, 150 mM NaCl, 1% NP-40, 0.5% sodium deoxycholate, and 0.1% sodium dodecyl sulfate) supplemented with 1 mM phenylmethylsulfonyl fluoride, 10 μg/mL aprotinin, 1 μM leupeptin, and 10 μg/mL pepstatin on ice for 20 min. The supernatant was collected after spinning down at 15000 RPM at 4 degrees Celsius for 10 min. The concentration of whole lysates was quantified using a Bradford assay. 50-75 μg of cell lysates was boiled in 4× Laemmli Loading Dye and boiled at 100 degrees Celsius for 10 min. 25 μg were run in 8% SDS-PAGE gels and transferred to nitrocellulose membranes. Blots were blocked in 5% skim milk in PBST [PBS and 0.1% Tween 20] for 45 min, then incubated with primary antibodies at 4 degrees Celsius overnight. Blots were washed in PBST for 30 min, then incubated with horseradish peroxidase-linked secondary antibodies (Jackson ImmunoResearch) for 1 hr. Afterwards, blots were washed in PBST for 15-30 min, then treated with chemiluminescent ECL reagent and imaged with the ChemiDoc Imaging System (Bio-Rad) or Azure 600 (Azure Biosystems). Expression levels of the indicated proteins were probed by the following antibodies: anti-CARM1, anti-me-BAF155, anti-me-PABP1, anti-PABP1,^7 anti-BAF155 (D7F8S, Cell Signaling Technology), anti-PRMT1 (Bethyl), anti-PRMT6 (D-5, Santa Cruz Biotechnology), anti-β-Actin (ABclonal Technology, Sigma-Aldrich), anti-Hsp90 (H-114, Santa Cruz Biotechnology).

BAF155 me2a [1] = assay: BAF155 me2a level in BT474 cells, western blot; assay type: cell-based; conditions: 10 μM, after 48 h
From the text: (§1) FIGS. 7A-7F. […] Cell lysates were collected and CARM1, methyl-BAF155, total BAF155, methyl-PABP1, and total PABP1 levels were detected by Western blot. […] Cell lysates were collected and CARM1, methyl-BAF155, total BAF155 levels were detected by Western blot. […] Cell proliferation rate normalized to day 0 was plotted. […] Migrated cells were stained with 1% crystal violet and the percentage of migrated cells were plotted. Data mean±s.d. ***. P≤0.001.
(§2) Western Blot Assay. Cells were harvested and washed with Dulbecco's phosphate-buffered saline (PBS), then lysed with 1×RIPA lysis buffer (50 mM Tris pH 7.5, 150 mM NaCl, 1% NP-40, 0.5% sodium deoxycholate, and 0.1% sodium dodecyl sulfate) supplemented with 1 mM phenylmethylsulfonyl fluoride, 10 μg/mL aprotinin, 1 μM leupeptin, and 10 μg/mL pepstatin on ice for 20 min. The supernatant was collected after spinning down at 15000 RPM at 4 degrees Celsius for 10 min. The concentration of whole lysates was quantified using a Bradford assay. 50-75 μg of cell lysates was boiled in 4× Laemmli Loading Dye and boiled at 100 degrees Celsius for 10 min. 25 μg were run in 8% SDS-PAGE gels and transferred to nitrocellulose membranes. Blots were blocked in 5% skim milk in PBST [PBS and 0.1% Tween 20] for 45 min, then incubated with primary antibodies at 4 degrees Celsius overnight. […]

BAF155 me2a [2] = assay: BAF155 me2a level in MDA-MB-231 cells, western blot; assay type: cell-based; conditions: 10 μM, after 48 h
From the text: as §1, §2

MDA-MB-231 cells = assay: Transwell migration assay, MDA-MB-231 cells; assay type: cell-based; conditions: 10 μM, transwell, 20 h
Method: Transwell Migration Assay. Cells were harvested and washed in serum-free DMEM. The wells of a 24-well plate were filled with 800 μL of DMEM with 10% FBS. Transwell inserts with […] pore size were then added to the wells with DMEM. Cells were resuspended in serum-free DMEM, then 1×10^5 cells in 200 μL were added to the upper chambers. Drug treatments were added to the lower chambers, then incubated for 20 h at 37° C. The cells on the upper surface were removed with cotton swabs. Migratory cells were fixed in 3.7% formaldehyde at room temperature, followed by 100% methanol at −20° C. Fixed cells were stained with 1% crystal violet in 20% methanol for 30 min. The migration area was quantified from five independent fields of view of the lower surface of the membrane under a microscope.

Structure (SMILES) | Number of significantly changed proteins compared to the DMSO group (MCF7 cells) | CARM1 degradation by negative control (CARM1) | BAF155 me2a level (BAF155 me2a [1]) | BAF155 me2a level (BAF155 me2a [2]) | Cell migration (MDA-MB-231 cells)
COCCN1CCC(c2cc(CN(C)C(=O)c3cccc(Oc4ccc(OCC(=O)N5CCC(CN6CCC(CN7CCN(CC(=O)N[C@H](C(=O)N8C[C@H](O)C[C@H]8C(=O)N[C@@H](C)c8ccc(-c9scnc9C)cc8)C(C)(C)C)CC7)CC6)CC5)cc4)c3)ccn2)CC1 [Compound 3bN, (2S,4R)-4-hydroxy-1-((S)-2-(2-(4-((1-((1-(2-(4-(3-(((2-(1-(2-methoxyethyl)piperidin-4-yl)pyridin-4-yl)methyl)(methyl)carbamoyl)phenoxy)phenoxy)acetyl)piperidin-4-yl)methyl)piperidin-4-yl)methyl)piperazin-1-yl)acetamido)-3,3-dimethylbutanoyl)-N—((S)-1-(4-(4-methylthiazol-5-yl)phenyl)ethyl)pyrrolidine-2-carboxamide] | 45 | No CARM1 degradation was observed | – | – | –
CNCCN1CCC(c2cc(CN(C)C(=O)c3cccc(Oc4ccccc4)c3)ccn2)CC1 [TP-064, reference compound] | – | – | decrease of BAF155 me2a level was observed | decrease of BAF155 me2a level was observed | inhibited cell migration at a similar level
